US8546343B2, “Aminoglycoside antibiotics targeting bacterial 16S ribosomal RNA” (Eidgenoessische Technische Hochschule Zurich, priority 2007, dated 2013)

How the values were obtained:
Format in all cases: cell-based, Mycobacterium smegmatis
[1] = tested on: M. smegmatis ΔrrnB (bacterial ribosomes); assay: MIC, recombinant M. smegmatis with bacterial (wild-type) ribosomes; settings: 72 h at 37° C.
From the text: (§1) The strain used for introduction/selection of mutational alterations was a genetically modified derivative of Mycobacterium smegmatis carrying a single functional chromosomal rRNA operon (Sander et al. Mol. Microbiol. 1996, 22: 841-848). This strain, termed M. smegmatis rrn^−, allowed for the selection of mutational rRNA gene alterations using a plasmid carrying the rRNA gene with the respective mutational alteration.)
(§2) The rRNA gene carried on the plasmid encodes either the complete rRNA operon (Prammananan et al. Antimicrob. Agents Chemother. 1999, 43: 447-453) or a non-functional rRNA gene fragment of approximately 1.0 kb (Pfister et al. Antimicrob. Agents Chemother. 2003, 47: 1496-1502). PCR-mutagenesis in vitro was used to generate the mutagenized rRNA gene fragment. In the case of a partial rRNA gene fragment the mutagenized rRNA gene fragment was cloned into vectors pMV261 or pMV361 (Sander et al. Mol. Microbiol. 2002, 46: 1295-1304; Pfister et al. Antimicrob. Agents Chemother. 2003, 47: 1496-1502) to result in vectors carrying a partial rRNA gene fragment of approximately 1.0 kb with the mutational alteration introduced. In the case of plasmids carrying the complete rRNA operon the mutagenized rRNA gene fragment obtained by PCR was cloned into vectors pMV361 rRNA or pMV261 rRNA using appropriate restriction sites (Prammananan et al. Antimicrob. Agents Chemother. 1999, 43: 447-453). Vectors pMV361 rRNA and pMV261 rRNA carried a complete copy of the rRNA operon from M. smegmatis (Sander et al. Mol. Microbiol. 1997, 26: 469-480). Introduction of mutations into the plasmid encoded rRNA was confirmed by sequencing.
(§3) The single rRNA allelic derivative of M. smegmatis, i.e. M. smegmatis rrn, was used for transformation of the plasmids. The strain was made electro-competent and transformed according to standard techniques and as described previously (Sander et al. Mol. Microbiol. 1997, 26: 469-484). Following primary selection, the plasmid-encoded mutational rRNA gene alteration was transferred into the single chromosomal rRNA operon by means of RecA-mediated homologous recombination (Prammananan at al. Antimicrob. Agents Chemother. 1999, 43: 447-453). Introduction of the mutational rRNA gene alteration into the single functional chromosomal rRNA operon by gene conversion was confirmed by sequence determination.
(§4) Ribosomal drug susceptibility was studied by determining the minimal inhibitory concentrations, as described in detail in Pfister et al. 2003 and 2005 (see above).
(§5) The recombinants carrying the respective mutational alterations in the functional rRNA operon were colony-purified and subjected to determinations of minimal inhibitory concentrations (MIC) to determine ribosomal drug susceptibility. Cultures from single colonies were grown in LB medium supplemented with 0.05% Tween 80 and used for MIC tests in a microtiter plate format. Starting cultures contained 200 μl of bacterial cells at an optical density of 0.025 at 600 nm, and the respective drug was added in twofold series of dilution.
(§6) Key nucleotides which distinguish the prokaryotic from the eukaryotic decoding site are 16S rRNA positions 1408 (bacterial ribosome: A, eukaryotic cytosolic ribosomes: G) and 1491 (bacterial ribosomes: G, eukaryotic cytosolic ribosomes: A, eukaryotic mitochondrial ribosome: C).

[2] = tested on: M. smegmatis ΔrrnB 1408G (16S rRNA position 1408 G, eukaryotic cytosolic ribosomes); assay: MIC, recombinant M. smegmatis with mutant ribosomes 1408G; settings: M. smegmatis ΔrrnB 1408G mutant ribosomes; 72 h at 37° C.
From the text: as §1, §2, §3, §4, §5, §6

[3] = tested on: M. smegmatis ΔrrnB 1491A (16S rRNA position 1491 A, eukaryotic cytosolic ribosomes); assay: MIC, recombinant M. smegmatis with mutant ribosomes 1491A; settings: M. smegmatis ΔrrnB 1491A mutant ribosomes; 72 h at 37° C.
From the text: as §1, §2, §3, §4, §5, §6

[4] = tested on: M. smegmatis ΔrrnB 1491C (16S rRNA position 1491 C, eukaryotic mitochondrial ribosome); assay: MIC, recombinant M. smegmatis with mutant ribosomes 1491C; settings: M. smegmatis ΔrrnB 1491C mutant ribosomes; 72 h at 37° C.
From the text: as §1, §2, §3, §4, §5, §6

| Structure (SMILES) | minimal inhibitory concentrations ΔrrnB [1] | minimal inhibitory concentrations ΔrrnB 1408G [2] | minimal inhibitory concentrations ΔrrnB 1491A [3] | minimal inhibitory concentrations ΔrrnB 1491C [4] |
| --- | --- | --- | --- | --- |
| NC[C@@H]1O[C@H](O[C@H]2[C@@H](O)[C@H](O[C@@H]3[C@@H](O)[C@H](N)C[C@H](N)[C@H]3O[C@H]3O[C@@H]4CO[C@@H](c5ccccc5[N+](=O)[O-])O[C@H]4[C@H](O)[C@H]3N)O[C@@H]2CO)[C@H](N)[C@@H](O)[C@@H]1O [Compound 5.16, 4′,6′-O-o-Nitrobenzylideneparomomycin] | 4 to 16 µg/mL | 512 µg/mL | 512 µg/mL | >512 µg/mL |
| CN(C)c1ccc([C@@H]2OC[C@H]3O[C@H](O[C@H]4[C@H](O[C@@H]5O[C@H](CO)[C@@H](O[C@H]6O[C@@H](CN)[C@@H](O)[C@H](O)[C@H]6N)[C@H]5O)[C@@H](O)[C@H](N)C[C@@H]4N)[C@H](N)[C@@H](O)[C@@H]3O2)cc1 [Compound 5.18, 4′,6′-O-p-Dimethylaminobenzylideneparomomycin] | 2 to 4 µg/mL | 256 to 512 µg/mL | 256 µg/mL | >512 µg/mL |
| NC[C@@H]1O[C@H](O[C@H]2[C@@H](O)[C@H](O[C@@H]3[C@@H](O)[C@H](N)C[C@H](N)[C@H]3O[C@H]3O[C@@H]4CO[C@@H](c5cccc6ccccc56)O[C@H]4[C@H](O)[C@H]3N)O[C@@H]2CO)[C@H](N)[C@@H](O)[C@@H]1O [Compound 5.19, 4′,6′-O-1-Naphthylideneparomomycin] | 4 to 8 µg/mL | 512 µg/mL | 256 to 512 µg/mL | 256 µg/mL |
| NC[C@@H]1O[C@H](O[C@H]2[C@@H](O)[C@H](O[C@@H]3[C@@H](O)[C@H](N)C[C@H](N)[C@H]3O[C@H]3O[C@@H]4COC(c5ccco5)O[C@H]4[C@H](O)[C@H]3N)O[C@@H]2CO)[C@H](N)[C@@H](O)[C@@H]1O (stereo partly shown) [Compound 5.21, 4′,6′-O-2-Furanylideneparomomycin] | 8 to 16 µg/mL | >512 µg/mL | >512 µg/mL | >512 µg/mL |
| NC[C@@H]1O[C@H](O[C@H]2[C@@H](O)[C@H](O[C@@H]3[C@@H](O)[C@H](N)C[C@H](N)[C@H]3O[C@H]3O[C@@H]4COC(c5cccs5)O[C@H]4[C@H](O)[C@H]3N)O[C@@H]2CO)[C@H](N)[C@@H](O)[C@@H]1O (stereo partly shown) [Compound 5.22, 4′,6′-O-2-Thiophenylideneparomomycin] | 8 to 16 µg/mL | >512 µg/mL | >512 µg/mL | >512 µg/mL |
| CC1OC[C@H]2O[C@H](O[C@H]3[C@H](O[C@@H]4O[C@H](CO)[C@@H](O[C@H]5O[C@@H](CN)[C@@H](O)[C@H](O)[C@H]5N)[C@H]4O)[C@@H](O)[C@H](N)C[C@@H]3N)[C@H](N)[C@@H](O)[C@@H]2O1 (stereo partly shown) [Compound 5.23, 4′,6′-O-Ethylideneparomomycin] | 32 µg/mL | >512 µg/mL | >512 µg/mL | >512 µg/mL |
| NC[C@@H]1O[C@H](O[C@H]2[C@@H](O)[C@H](O[C@@H]3[C@@H](O)[C@H](N)C[C@H](N)[C@H]3O[C@H]3O[C@@H]4CO[C@@H](Cc5ccccc5)O[C@H]4[C@H](O)[C@H]3N)O[C@@H]2CO)[C@H](N)[C@@H](O)[C@@H]1O [Compound 5.24] | 64 µg/mL | 256 µg/mL | 256 µg/mL | 128 to 256 µg/mL |
| NC[C@@H]1O[C@H](O[C@H]2[C@@H](O)[C@H](O[C@@H]3[C@@H](O)[C@H](N)C[C@H](N)[C@H]3O[C@H]3O[C@@H]4CO[C@@H](C5CCCCC5)O[C@H]4[C@H](O)[C@H]3N)O[C@@H]2CO)[C@H](N)[C@@H](O)[C@@H]1O [Compound 5.27, 4′,6′-O-Cyclohexylmethylideneparomomycin] | 32 to 64 µg/mL | >512 µg/mL | >512 µg/mL | >512 µg/mL |
| NCC1OC(OC2C(CO)OC(OC3C(O)C(N)CC(N)C3OC3OC(COCc4ccccc4)C(O)C(O)C3N)C2O)C(N)C(O)C1O (stereo not shown) [Compound 15, 6′-O-Benzylparomomycin] | 32 to 64 µg/mL | >512 µg/mL | >512 µg/mL | >512 µg/mL |
| NC[C@@H]1O[C@H](O[C@H]2[C@@H](O)[C@H](O[C@@H]3[C@@H](O)[C@H](N)C[C@H](N)[C@H]3O[C@H]3O[C@H](CO)[C@@H](OCc4ccc(C(F)(F)F)cc4)[C@H](O)[C@H]3N)O[C@@H]2CO)[C@H](N)[C@@H](O)[C@@H]1O [Compound 19b, 4′-p-(trifluoromethyl)benzylparomomycin] | 8 µg/mL | >512 µg/mL | >512 µg/mL | ≧512 μg/ml |
| NC[C@@H]1O[C@H](O[C@H]2[C@@H](O)[C@H](O[C@@H]3[C@@H](O)[C@H](N)C[C@H](N)[C@H]3O[C@H]3O[C@H](CO)[C@@H](OCOCc4ccccc4)[C@H](O)[C@H]3N)O[C@@H]2CO)[C@H](N)[C@@H](O)[C@@H]1O [Compound 19d, 4′-Benzyloxymethylparomomycin] | 16 µg/mL | >512 µg/mL | >512 µg/mL | >512 µg/mL |
| COc1ccc(COC2C(CO)OC(OC3C(N)CC(N)C(O)C3OC3OC(CO)C(OC4OC(CN)C(O)C(O)C4N)C3O)C(N)C2O)cc1 (stereo not shown) [Compound 19e, 4′-p-Methoxybenzylparomomycin] | 8 µg/mL | >512 µg/mL | >512 µg/mL | >512 µg/mL |
| NC[C@@H]1O[C@H](O[C@H]2[C@@H](O)[C@H](O[C@@H]3[C@@H](O)[C@H](N)C[C@H](N)[C@H]3O[C@H]3O[C@H](CN)[C@@H](O)[C@H](O)[C@H]3N)O[C@@H]2CO)[C@H](N)[C@@H](O)[C@@H]1O [Neomycin B, reference compound] | 0.5 to 1 µg/mL | >512 µg/mL | 4 µg/mL | 16 to 32 µg/mL |
